Article PMC7690921, “Synthesis and Biological Evaluation of Analogues of Butyrolactone I as PTP1B Inhibitors” (Marine Drugs, 2020)

How the values were obtained:
PTP1B = target: T1, PTP1B (Homo sapiens, UniProt P18031); test: PTP1B inhibitory assay (pNPP substrate); format: biochemical; details: for IC50: pNPP 1 mM, 37 °C, Mean ± SD (n = 4), read-out: IC50 against PTP1B
T1 sequence (P18031 1-435): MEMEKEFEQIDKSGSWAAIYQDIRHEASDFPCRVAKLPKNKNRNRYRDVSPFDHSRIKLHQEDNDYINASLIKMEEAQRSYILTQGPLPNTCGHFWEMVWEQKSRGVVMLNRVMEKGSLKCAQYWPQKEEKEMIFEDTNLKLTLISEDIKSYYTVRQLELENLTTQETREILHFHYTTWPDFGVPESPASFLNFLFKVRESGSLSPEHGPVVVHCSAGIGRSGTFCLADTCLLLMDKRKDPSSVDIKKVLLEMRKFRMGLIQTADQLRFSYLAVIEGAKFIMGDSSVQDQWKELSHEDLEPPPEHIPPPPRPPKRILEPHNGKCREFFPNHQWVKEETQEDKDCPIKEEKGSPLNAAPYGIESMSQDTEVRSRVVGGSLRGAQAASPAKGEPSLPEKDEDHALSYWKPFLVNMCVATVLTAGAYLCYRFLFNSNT
Procedure: The tested compounds at designated concentrations were solubilized in DMSO, and 2 μL samples was added to 96-well clear polystyrene plate. […] Then, 78 μL of an assay buffer (25 mM Hepes, 150 mM sodium chloride (NaCl), 0.1% bovine serum albumin (BSA), 3 mM dithiothreitol, 1 mM ethylenediaminetetraacetic acid) and 10 μL of the PTP1B (10 μg/mL) was added and incubated for 10 min at 37 °C. The screening was initiated by adding 10 μL p-nitrophenyl phosphate (pNPP), and the catalysis of pNPP (1 mM) was continuously monitored on SpectraMax 340 microplate reader (Molecular Devices, Sunnyvale, CA, USA) at 405 nm for 20 min at 37 °C. The slope of the linear portion of the kinetic curve generated from each well was used to determine the activity of PTP1B. The inhibition effect of the compound was represented by the percentage of the slope of the linear portion of its kinetic curve relative to that of the negative control (DMSO). The IC50 was calculated with Prism 8 software (Graphpad, San Diego, CA, USA) from the non-linear curve fitting of the percentage of inhibition (%inhibition) versus the inhibitor concentration [I] by using the following equation: %Inhibition = 100/(1 + [IC50/[I]] ^k), where k is the Hill coefficient.

α-glucosidase = target: α-glucosidase; design: method as in earlier work; details: cited from earlier work
[1] = design: method as in doi:10.1007/s00044-013-0659-4; details: read-out: IC50 antioxidant activities; cited from earlier work
IR HepG2 cells = test: Glucose consumed in insulin resistance model of HepG2 cells; format: cell-based; details: high glucose and high insulin stimulated HepG2; 24 h treatment
Procedure: HepG2 cells (Cell Bank of Chinese Academy of Sciences, Shanghai, China) were seeded in 96-well plates in normal Dulbecco’s Modified Eagle’ Medium (DMEM, 5.6 mM glucose) supplemented with 10% fetal bovine serum (FBS). The density of the cells in each plate was 1 × 10^4 cells/mL. The original medium was removed when the cells became adherent. For the control group, the medium was replaced with […]. The model of insulin resistance was established by stimulation with high glucose DMEM (30 mM glucose) with 10^−7 mol/L insulin for 48 h. Then, the cells were treated with drug-free or drug-containing DMEM (5.6 mM glucose) containing 0.2% BSA and […] 1 × 10^−9 mol/L insulin for 24 h. Glucose consumption was detected with the glucose oxidase method using a glucose assay kit (Cat#BC2500, Solarbio, Beijing, China).

RIN-m5f cell line = test: Cell proliferation assay (CCK-8), RIN-m5f; format: cell-based; details: CCK-8, 48 h
Procedure: The cytotoxic effect of the synthesized butenolides on RIN-m5f (CRL-11605, American Type Culture Collection, Manassas, VA, USA) and HepG2 cells was determined with a Cell Counting Kit 8 (CCK-8) kit (Dojindo, Tokyo, Japan). Cells were seeded into 96-well plates in DMEM with 10% FBS in a volume of 100 µL per well and cultured overnight at 37 °C. The density of the cells in each plate was 1 × 10^4 cells/mL. According to the manufacturer’s protocol, after treatment with DMSO or varying concentrations of BLs for 48 h, 10 µL of CCK-8 solution was added to each well and cells were incubated for 2 h at 37 °C. Measure the absorbance at 450 nm of each well on a SpectraMax 340 microplate reader.

| SMILES | IC50 (PTP1B) | PTP1B inhibitory activity (in words) (PTP1B) | IC50 (α-glucosidase) | IC50 [1] | hypoglycemic effect (glucose consumed / glucose uptake) in IR HepG2 cells (IR HepG2 cells) | cytotoxicity to RIN-m5f cell line (proliferation) (RIN-m5f cell line) |
| --- | --- | --- | --- | --- | --- | --- |
| CC(C)=CCc1cc(C2OC(=O)C(O)=C2c2ccc(O)cc2)ccc1O (stereo not drawn) [BL-2] | 133 µM |  |  |  |  |  |
| COC(=O)[C@]1(Cc2ccc(O)c(CC=C(C)C)c2)OC(=O)C(O)=C1c1ccc(O)cc1 [Butyrolactone I] |  |  | 52.2 µM | 51.4 µM |  |  |
| CC(C)=CCc1cc(C2OC(=O)C(O)=C2c2ccc(O)cc2)ccc1OCc1ccccc1 (stereo not drawn) [BL-3] |  | strong PTP1B inhibitory activity |  |  | significant hypoglycemic effect | did not affect the proliferation |

More lines, main results first:

| IC50 (PTP1B) | PTP1B inhibitory activity (in words) (PTP1B) | SMILES | IC50 (α-glucosidase) | IC50 [1] | hypoglycemic effect (glucose consumed / glucose uptake) in IR HepG2 cells (IR HepG2 cells) | cytotoxicity to RIN-m5f cell line (proliferation) (RIN-m5f cell line) |
| --- | --- | --- | --- | --- | --- | --- |
| 17.2 µM | strong PTP1B inhibitory activity | CC(C)=CCc1cc(CC2OC(=O)C(O)=C2c2ccc(O)cc2)ccc1OCc1ccccc1 (stereo not drawn) [BL-6] |  |  | did not improve the glucose uptake | significant cytotoxicity |
|  | strong PTP1B inhibitory activity | O=C1OC(Cc2ccc(OCc3ccccc3)cc2)C(c2ccc(O)cc2)=C1O (stereo not drawn) [BL-5] |  |  | significant hypoglycemic effect | did not affect the proliferation |
| 28.5 µM | strong PTP1B inhibitory activity | COC(=O)C1(c2ccc(OCc3ccccc3)cc2)OC(=O)C(O)=C1c1ccc(O)cc1 (stereo not drawn) [BL-4] |  |  |  |  |
